Earlier results, collected in patent US20110045550A1, “Fission Yeast Expressing Cytochrome P450 Reductase” (priority 2007, published 2011).

Key:
[1] = biological target: human P-glycoprotein ATPases (ABCB1 subfamily) (Homo sapiens, UniProt P08183)
[2] = pH=8.5

Chain of human P-glycoprotein ATPases (ABCB1 subfamily) (P08183 whole entry): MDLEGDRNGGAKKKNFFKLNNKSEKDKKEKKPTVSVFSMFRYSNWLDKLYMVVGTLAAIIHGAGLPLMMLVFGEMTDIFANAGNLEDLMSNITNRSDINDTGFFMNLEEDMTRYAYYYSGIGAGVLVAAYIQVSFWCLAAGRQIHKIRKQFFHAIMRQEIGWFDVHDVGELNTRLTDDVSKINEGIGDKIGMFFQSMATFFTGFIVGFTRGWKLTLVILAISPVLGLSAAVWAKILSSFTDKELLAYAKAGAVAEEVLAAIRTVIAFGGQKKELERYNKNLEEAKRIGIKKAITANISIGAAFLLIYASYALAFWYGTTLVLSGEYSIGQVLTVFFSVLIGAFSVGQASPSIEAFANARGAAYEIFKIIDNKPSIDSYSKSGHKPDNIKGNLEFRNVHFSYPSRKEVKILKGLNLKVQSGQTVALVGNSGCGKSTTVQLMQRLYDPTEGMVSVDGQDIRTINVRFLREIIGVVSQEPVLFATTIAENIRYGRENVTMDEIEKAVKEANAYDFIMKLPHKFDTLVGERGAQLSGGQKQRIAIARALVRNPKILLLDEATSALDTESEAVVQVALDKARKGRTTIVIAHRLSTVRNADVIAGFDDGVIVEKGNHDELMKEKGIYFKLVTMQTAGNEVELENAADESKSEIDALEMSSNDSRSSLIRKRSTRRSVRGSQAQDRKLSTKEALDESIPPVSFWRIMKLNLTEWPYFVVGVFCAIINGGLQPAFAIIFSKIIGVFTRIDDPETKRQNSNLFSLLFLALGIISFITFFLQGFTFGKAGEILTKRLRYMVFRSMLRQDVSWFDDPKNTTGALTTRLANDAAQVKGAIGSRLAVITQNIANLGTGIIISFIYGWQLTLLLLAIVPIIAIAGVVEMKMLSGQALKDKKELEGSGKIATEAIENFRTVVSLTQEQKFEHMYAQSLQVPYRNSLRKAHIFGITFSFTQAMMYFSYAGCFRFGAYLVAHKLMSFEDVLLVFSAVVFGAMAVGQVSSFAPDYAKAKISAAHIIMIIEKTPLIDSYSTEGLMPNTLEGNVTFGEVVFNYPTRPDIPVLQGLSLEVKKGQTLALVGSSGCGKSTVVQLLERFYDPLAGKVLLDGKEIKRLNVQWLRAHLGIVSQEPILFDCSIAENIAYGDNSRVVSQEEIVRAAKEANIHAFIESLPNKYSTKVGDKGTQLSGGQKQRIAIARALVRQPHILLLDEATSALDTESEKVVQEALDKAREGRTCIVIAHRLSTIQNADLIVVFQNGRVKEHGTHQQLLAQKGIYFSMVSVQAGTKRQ

Row | SMILES | substrate for human P-glycoprotein [1] | solubility [2]
1 | CC(NC(C)(C)C)C(=O)c1cccc(Cl)c1 (stereo not drawn) [bupropion] | weak substrate | –
2 | Cc1ncc2n1-c1ccc(Cl)cc1C(c1ccccc1F)=NC2 [midazolam] | very good substrate | around 150 μM
